Source: ChEMBL document CHEMBL6074698, “Heteroaryl Glutarimides and Dihydrouracils as Cereblon Ligand Scaffolds for Molecular Glue Degrader Discovery” (ACS Med Chem Lett, 2024)

Assays:
[1] = physchem; conditions: PBS, pH 7.4
[2] = physchem; conditions: DMEM buffer, pH 7.4
[3] = in vitro; conditions: human

Row | half-life at 48 h [2] | half-life at 24 h ([3]; MV4-11 cells) | half-life at 24 h ([3]; mv4-11) | SMILES | logD [1]
1 | – | – | – | O=C1CCC(c2ccnc3[nH]ncc23)C(=O)N1 (stereo not drawn) | -0.3
2 | 0.9 h | 12 h | – | Nc1cccc2c1CN(C1CCC(=O)NC1=O)C2=O (stereo not drawn) [LENALIDOMIDE] | –
3 | – | – | – | O=C1CCC(c2ccc3[nH]ncc3c2)C(=O)N1 (stereo not drawn) | 0.3
4 | – | – | – | O=C1CCN(c2ccccc2)C(=O)N1 | 0.3
5 | – | 3.3 h | – | O=C1CCC(N2C(=O)c3ccccc3C2=O)C(=O)N1 (stereo not drawn) [THALIDOMIDE] | 0.7
6 | – | – | – | O=C1CCC(c2cccc3cc[nH]c23)C(=O)N1 (stereo not drawn) | 1.4
7 | 0.4 h | – | 12 h | Nc1cccc2c1C(=O)N(C1CCC(=O)NC1=O)C2=O (stereo not drawn) [POMALIDOMIDE] | 1.3

Row | SMILES | half-life at 48 h [2] | half-life at 24 h ([3]; MV4-11 cells) | half-life at 24 h ([3]; mv4-11) | logD [1]
8 | O=C1CCC(c2ccccc2)C(=O)N1 (stereo not drawn) | – | > 24 h | – | 0.6
